Patent US20050272784A1 (priority 2004, published 2005)

What was measured:
[1] = test system: SPI1 type III protein secretion system (SopE'-'Bla secretion); test: Primary assay: Type III protein secretion of the chimeric SopE'-'Bla polypeptide by Salmonella enterica; assay type: cell-based; details: read-out: SopE IC50
Description: Primary assay: Type III protein secretion of the chimeric SopE′-'Bla polypeptide by Salmonella enterica. This procedure is a cell-based assay that measures the type III-dependent secretion by Salmonella enterica of a plasmid-encoded chimeric polypeptide whose synthesis can be regulated, and which is endowed with an enzymatic activity that can be monitored […] by hydrolysis of a substrate that is unable to penetrate into the bacterial cytoplasm within the time constraints of the reaction. Thus, the colorimetric reaction is not influenced by SopE′-'Bla polypeptide in the bacterial cytoplasm. Instead, it effectively measures the amount of polypeptide that has been secreted from the S. enterica cytoplasm to the extracellular medium via type III system protein secretion.
The SopE′-' Bla recombinant polypeptide consists of two functionally distinct domains spliced together. The N-terminus domain is encoded by a polynucleotide region specifying the signal for type III secretion of the SopE polypeptide of S. enterica, an effector of the SPI1 type III protein secretion system. The C-terminus domain of SopE′-'Bla consists of a 263 amino acid peptide sequence that corresponds to the TEM-1 β-lactamase expressed by plasmid pBR322 but without its N-terminal signal sequence. The TEM-1 β-lactamase part of the SopE′-'Bla chimeric polypeptide is used as a reporter enzyme. It is capable of hydrolyzing nitrocefin resulting in a product whose accumulation can be monitored by colorimetric detection. The secretion of the SopE′-'Bla chimeric polypeptide from the cytoplasm to the extracellular medium is dependent on type III protein secretion.
For this procedure, cells grown under conditions known to favor a functional SPI1 secretion system are induced for expression of the SopE′-'Bla protein and grown either in the presence or in the absence of putative inhibitors for determined time. Nitrocefin is then added to the various cultures and its hydrolysis are used for quantitation. An inhibitor of Type III protein secretion is generally a compound that reduces the signal of the enzymatic reaction by decreasing the amount of SopE′-'Bla secreted into the extracellular medium.

[2] = test system: type III protein secretion system of P. aeruginosa PA103 (ExoU secretion); test: Tertiary assay: Type III-dependent secretion of ExoU by P. aeruginosa PA103; assay type: cell-based; details: Pseudomonas aeruginosa; for IC50: ExoU secreted into extracellular medium
Description: Tertiary assay: inhibition of Type III protein secretion of effectors from a Pseudomonas aeruginosa system. Type III protein secretion is used by P. aeruginosa to secrete several essential virulence determinants. One effector of the type III protein secretion system of P. aeruginosa PA103 is the virulence determinants ExoU.
The amount of Type III-dependent secretion of ExoU by P. aeruginosa PA103 can be determined in a cell-based assay by quantification of the 73.9 kDa ExoU protein scereted into the extracellular medium. Such quantitation can be achieved by growing strain PA103 in a deferrated medium in the presence of nitrilotriacetic acid (an inducer of Type III protein secretion in P. aeruginosa) and either in the presence or absence of putative inhibitors. After a prolonged growth period, the cells are sedimented and the supernatants concentrated by ammonium sulfate precipitation. The proteins in the resuspended pellets are separated by electrophoresis on SDS-polyacrylamide gels. After staining gels with Colloidal Blue™, the 73.9 kDa ExoU band is quantitated by scanning through an imager. The effects of inhibitors on the intensity of the ExoU band may be measured relative to that of untreated controls.

Compound | IC50 [2] [µM] | other results
O=C(N[C@@H](CSCc1ccccc1)C(=O)O)c1nc(-c2ccc(C(F)(F)F)cc2)oc1-c1cnc2ccccc2n1 [Compound 11, (R)-3-Benzylsulfanyl-2-{[5-quinoxalin-2-yl-2-(4-trifluoromethylphenyl)oxazole-4-carbonyl]amino}propionic acid] | – | IC50 [1]: 42.2 µM
O=C(N[C@@H](Cc1ccc(Cl)cc1)C(=O)O)c1nc(-c2ccc(C(F)(F)F)cc2)oc1-c1ccc2ccccc2n1 [Compound 28, (S)-3-(4-Chlorophenyl)-2-{[5-quinolin-2-yl-2-(4-trifluoromethylphenyl)oxazole-4-carbonyl]amino}propionic acid] | – | IC50 [1]: 3.6 µM
O=C(NC(Cc1ccc(Cl)cc1)C(=O)O)c1cc(-c2ccc(-c3ccccc3)cc2)nn1-c1cccc(C(F)(F)F)c1 (centres unmarked) [Compound 74, 2-{[5-Biphenyl-4-yl-2-(3-trifluoromethylphenyl)-2H-pyrazole-3-carbonyl]amino}-3-(4-chlorophenyl)propionic acid] | – | IC50 [1]: 1.5 µM
O=C(N[C@@H](COCc1ccccc1)C(=O)O)c1nc(-c2ccc(-c3ccccc3)cc2)oc1-c1cnc(Cl)c(Cl)c1 [Compound 44, (S)-3-Benzyloxy-2-{[2-biphenyl-4-yl-5-(5,6-dichloropyridin-3-yl)oxazole-4-carbonyl]amino}propionic acid] | – | IC50 [1]: 3.3 µM
O=C(N[C@@H](CSCc1ccccc1)C(=O)O)c1nc(-c2ccc(C(F)(F)F)cc2)oc1-c1ccc(OCc2ccccc2)cc1 [Compound 17, (R)-2-{[5-(4-Benzyloxyphenyl)-2-(4-trifluoromethylphenyl)oxazole-4-carbony]amino}-3-benzylsulfanylpropionic acid] | 34.3 | –
N#Cc1ccc(-c2oc(-c3ccc(C(F)(F)F)cc3)nc2C(=O)NC(CSCc2ccccc2)C(=O)O)cc1 (stereo in doubt) [Compound 1, (R)-3-Benzylsulfanyl-2-{[5-(4-cyanophenyl)-2-(4-trifluoromethylphenyl)oxazole-4-carbonyl]amino}propionic acid] | 70.7 | –
O=C(N[C@H](COCc1ccccc1)C(=O)O)c1nc(-c2ccc(C(F)(F)F)cc2)oc1-c1ccc(-c2ccccc2)cc1 [Compound 72, (R)-3-Benzyloxy-2-{[5-biphenyl-4-yl-2-(4-trifluoromethylphenyl)oxazole-4-carbonyl]amino}propionic acid] | 54.8 | –
O=C(N[C@@H](CSCc1ccccc1)C(=O)O)c1nc(-c2ccc(C(F)(F)F)cc2)oc1-c1ccc(-c2ccncc2)cc1 [Compound 19, (R)-3-Benzylsulfanyl-2-{[5-(4-pyridin-4-yl-phenyl)-2-(4-trifluoromethylphenyl)oxazole-4-carbonyl]amino}propionic acid] | 78.2 | –
O=C(N[C@@H](CSCc1ccccc1)C(=O)O)c1nc(-c2ccc(C(F)(F)F)cc2)oc1-c1ccc(-c2ccccc2)nc1 [Compound 33, (R)-3-Benzylsulfanyl-2-{[5-(6-phenylpyridin-3-yl)-2-(4-trifluoromethylphenyl)oxazole-4-carbonyl]amino}propionic acid] | 48.9 | –
O=C(N[C@H](Cc1ccc(Cl)cc1)C(=O)O)c1nc(-c2cccc3ccccc23)oc1-c1ccc(C(F)(F)F)nc1 [Compound 64, (R)-3-(4-Chlorophenyl)-2-{[2-naphthalen-1-yl-5-(6-trifluoromethylpyridin-3-yl)oxazole-4-carbonyl]amino}propionic acid] | 51.4 | –
O=C(N[C@@H](COCc1ccccc1)C(=O)O)c1nc(-c2ccc(-c3ccsc3)cc2)oc1-c1ccc(Cl)c(Cl)c1 [Compound 52, (S)-3-Benzyloxy-2-{[5-(3,4-dichlorophenyl)-2-(4-thien-3-yl-phenyl)oxazole-4-carbonyl]amino}propionic acid] | 56.4 | –
O=C(N[C@@H](COCc1ccccc1)C(=O)O)c1nc(-c2ccc(-c3ccccc3)cc2)oc1-c1ccc(Cl)cc1Cl [Compound 61, (S)-3-Benzyloxy-2-{[2-biphenyl-4-yl-5-(2,4-dichlorophenyl)oxazole-4-carbonyl]amino}propionic acid] | 66.1 | –
O=C(N[C@@H](C[S+]([O-])Cc1ccccc1)C(=O)O)c1nc(-c2ccc(-c3ccccc3)cc2)nn1-c1ccc(Cl)c(Cl)c1 (stereo partly drawn) [Compound 70, (R)-2-{[5-Biphenyl-4-yl-2-(3,4-dichlorophenyl)-2H-[1,2,4]triazole-3-carbonyl]amino}-3-phenylmethanesulfinylpropionic acid] | 25.5 | –
O=C(N[C@@H](CSCc1ccccc1)C(=O)O)c1nc(-c2ccc(C(F)(F)F)cc2)oc1-c1ccc(-c2cccnc2)cc1 [Compound 18, (R)-3-Benzylsulfanyl-2-{[5-(4-pyridin-3-yl-phenyl)-2-(4-trifluoromethylphenyl)-oxazole-4-carbonyl]amino}propionic acid] | 89.1 | –
O=C(N[C@@H](CSCc1ccccc1)C(=O)O)c1nc(-c2ccc(C(F)(F)F)cc2)oc1-c1ccc(-c2ccccc2)cc1 [Compound 5, (R)-3-Benzylsulfanyl-2-{[5-biphenyl-4-yl-2-(4-trifluoromethylphenyl)oxazole-4-carbonyl]amino}propionic acid] | 12.5 | –
O=C(N[C@@H](COCc1ccccc1)C(=O)O)c1nc(-c2ccc(C(F)(F)F)cc2)oc1C#Cc1ccccc1 [Compound 10, (S)-3-Benzyloxy-2-{[5-phenylethynyl-2-(4-trifluoromethylphenyl)oxazole-4-carbonyl]amino}propionic acid] | 42.4 | –
O=C(N[C@@H](CSCc1ccccc1)C(=O)O)c1nc(-c2ccc(C(F)(F)F)cc2)oc1-c1ccc(N2CCCCC2)nc1 [Compound 14, (R)-3-Benzylsulfanyl-2-{[5-(3,4,5,6-tetrahydro-2H-[1,2′]bipyridin-5′-yl)-2-(4-trifluoromethylphenyl)oxazole-4-carbonyl]amino}propionic acid] | 62.8 | –
O=C(NC(Cc1ccc(Cl)cc1)C(=O)O)c1nc(-c2ccc(C(F)(F)F)cc2)oc1C1CCN(c2nccc(C(F)(F)F)n2)CC1 (centres unmarked) [Compound 55, 3-(4-Chlorophenyl)-2-({2-(4-trifluoromethylphenyl)-5-[1-(4-trifluoromethylpyrimidin-2-yl)piperidin-4-yl]oxazole-4-carbonyl}amino)propionic acid] | 51.7 | –
O=C(NC(Cc1ccc(Cl)cc1)C(=O)O)c1nc(-c2ccc(Oc3ccccc3)cc2)oc1-c1cnc(Cl)c(Cl)c1 (centres unmarked) [Compound 41, 3-(4-Chlorophenyl)-2-{[5-(5,6-dichloropyridin-3-yl)-2-(4-phenoxyphenyl)oxazole-4-carbonyl]amino}propionic acid] | 51.6 | –
O=C(NC(Cc1ccc(Cl)cc1)C(=O)O)c1nc(-c2ccc(C(F)(F)F)cc2)oc1-c1ccc(-c2ccccc2)cc1 (centres unmarked) [Compound 59, 2-{[5-Biphenyl-4-yl-2-(4-trifluoromethylphenyl)oxazole-4-carbonyl]amino}-3-(4-chlorophenyl)propionic acid] | – | inhibition at 100 µM ([2]; ExoU Conc 100 μM, read-out: ExoU % Inh): 84.1%
O=C(N[C@H](Cc1ccc(Cl)cc1)C(=O)O)c1nc(-c2ccc(-c3ccccc3)cc2)nn1-c1cccc(C(F)(F)F)c1 [Compound 4, (R)-2-{[5-Biphenyl-4-yl-2-(3-trifluoromethylphenyl)-2H-[1,2,4]triazole-3-carbonyl]amino}-3-(4-chlorophenyl)propionic acid] | 56.6 | –
Cc1nc(-c2ccc(-c3oc(-c4ccc(C(F)(F)F)cc4)nc3C(=O)N[C@@H](CSCc3ccccc3)C(=O)O)cc2)no1 [Compound 51, (R)-3-Benzylsulfanyl-2-{[5-[4-(5-methyl[1,2,4]oxadiazol-3-yl)phenyl]-2-(4-trifluoromethylphenyl)oxazole-4-carbonyl]amino}propionic acid] | 19.5 | –
Cc1nc(-c2ccc(-c3oc(-c4ccc(C(F)(F)F)cc4)nc3C(=O)N[C@H](Cc3ccc(Cl)cc3)C(=O)O)cc2)no1 [Compound 67, 3-(4-Chlorophenyl)-2-{[5-[4-(5-methyl[1,2,4]oxadiazol-3-yl)phenyl]-2-(4-trifluoromethylphenyl)oxazole-4-carbonyl]amino}propionic acid] | 12.5 | –
